Source: patent publication US9708325B2, “Sulfonimidoylpurinone compounds and derivatives for the treatment and prophylaxis of virus infection” (Hoffmann-La Roche Inc., priority 2015, dated 2017)
pIC50: −log10 of the molar value. Converted amounts (≈) assume the structure as drawn. Like-named read-outs stand apart in the source and are kept apart here.

What was measured:
human TLR7 = human TLR7 (Homo sapiens (Human), UniProt Q9NYK1); experiment: HEK-Blue-hTLR7 cells assay (SEAP reporter); assay type: cell-based; conditions: 20 hrs, read-out: HEK-Blue-hTLR7 (EC50 (μM))
In short: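 HEK-Blue cells stably carrying human TLR7 and an NF-κB-driven SEAP reporter, preincubated 24 h, then exposed to serially diluted compound (1% DMSO final) for 20 h at 37 °C. Supernatant SEAP measured with QUANTI-Blue substrate, 2 h at 37 °C, absorbance read at 620–655 nm.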

LYSA solubility = assay type: physicochemical; conditions: for solubility thermodynamic: 0.05 M phosphate buffer, pH 6.5, aqueous buffer, thermodynamic from solid
Procedure: LYSA solubility assay is used to determine the aqueous solubility of a compound. Samples were prepared in duplicate from 10 mM DMSO stock solution. […] After one night, the solutions were filtered using a microtiter filter plate. Then the filtrate and its 1/10 dilution were analyzed by HPLC-UV.

[1] = tested on: Salmonella typhimurium tester strains (TA1535, TA97, TA98, TA100, and TA102); experiment: Ames microsuspension assay; assay type: cell-based; conditions: five strains, absence and presence of S9
Procedure: The Ames microsuspension assay examines if a compound causes DNA mutations. The method was based on a modified pre-incubation version described by Kado et al (see references: B. N. Ames, J. McCann, E. Yamasaki, Mutation Res. 1975, 31, 347-364 N.Y. Kado, D. Langley, and E. Eisenstadt, Mutation Res. 1983, 121, 25-32). Five Salmonella typhimurium tester strains (TA1535, TA97, TA98, TA100, and TA102) were treated with the test compound in absence and in presence of an exogenous metabolic activation system (S9). The bacteria were pre-incubated for 1 h, the pre-incubation volume is 210 μL (100 μL of overnight culture, 100 μL of S9 mix (10% S9) or 100 μL phosphate buffer, and 10 μL test compound solution). The overnight cultures were resuspended for the test in cold phosphate buffer. The S9 mix contains potassium chloride, magnesium chloride, sodium phosphate buffered saline, NADP^+ and glucose-6-phosphate. The test tubes are incubated and shaken for 60 minutes at 37° C. 2.2 mL soft agar supplemented with L-histidine and biotin was added afterwards and the content of the tubes were mixed and poured on Vogel-Bonner minimal agar plates.
Three replicate plates for the test compound and negative control or two replicate plates for the positive controls were incubated at 37° C., upside down, for 2 days. Colonies were counted electronically using an automatic image analysis system after having inspected the background lawn for signs of toxicity.
S9 is an in vitro metabolic system which is obtained from liver homogenates by centrifuging them at 9000 g for 20 minutes. It contains CYP450 isoforms, phase-II metabolic enzymes, etc. In the Ames microsuspension assay test, S9 is used to assess mutagenicity of compounds, some of which require metabolic activation to become mutagenic.
Criteria of the Ames microsuspension assay: a positive result is defined as a reproducible, dose-related increase in the number of revertant colonies in at least one of the strains. For TA1535 and TA98, the positive threshold is a 2-fold increase over control. For TA97, TA100 and TA102, the threshold is a 1.5-fold increase.

hERG channel = hERG channel (Homo sapiens (Human), UniProt Q12809); experiment: hERG channel inhibition assay (patch-clamp, CHOhERG cells); assay type: cell-based
Procedure: The hERG K^+ channels were cloned in humans and stably expressed in a CHO (Chinese hamster ovary) cell line. CHOhERG cells were used for patch-clamp (voltage-clamp, whole-cell) experiments. Cells were stimulated by a voltage pattern to activate hERG channels and conduct IKhERG currents (rapid delayed outward rectifier potassium current of the hERG channel). […] Thereafter, the test compound was added to the preparation at increasing concentrations. For each concentration, an attempt was made to reach a steady-state effect, usually, this was achieved within 3-10 min at which time the next highest concentration was applied. The amplitude and kinetics of IKhERG are recorded in each concentration of the drug which were compared to the control values (taken as 100%). (references: Redfern W S, Carlsson L, Davis A S, Lynch W G, MacKenzie I, Palethorpe S, Siegl P K, Strang I, Sullivan A T, Wallis R, Camm A J, Hammond T G. 2003; Relationships between preclinical cardiac electrophysiology, clinical QT interval prolongation and torsade de pointes for a broad range of drugs: evidence for a provisional safety margin in drug development. Cardiovasc. Res. 58:32-45, Sanguinetti M C, Tristani-Firouzi M. 2006; hERG potassium channels and cardiac arrhythmia. Nature 440:463-469, Webster R, Leishman D, Walker D. 2002; Towards a drug concentration effect relationship for QT prolongation and torsades de pointes. Curr. Opin. Drug Discov. Devel. 5:116-26).

[2] = human, CHO cells stably expressing hERG, read-out: hERG IC20

Sequence of human TLR7 (Q9NYK1 27-1049): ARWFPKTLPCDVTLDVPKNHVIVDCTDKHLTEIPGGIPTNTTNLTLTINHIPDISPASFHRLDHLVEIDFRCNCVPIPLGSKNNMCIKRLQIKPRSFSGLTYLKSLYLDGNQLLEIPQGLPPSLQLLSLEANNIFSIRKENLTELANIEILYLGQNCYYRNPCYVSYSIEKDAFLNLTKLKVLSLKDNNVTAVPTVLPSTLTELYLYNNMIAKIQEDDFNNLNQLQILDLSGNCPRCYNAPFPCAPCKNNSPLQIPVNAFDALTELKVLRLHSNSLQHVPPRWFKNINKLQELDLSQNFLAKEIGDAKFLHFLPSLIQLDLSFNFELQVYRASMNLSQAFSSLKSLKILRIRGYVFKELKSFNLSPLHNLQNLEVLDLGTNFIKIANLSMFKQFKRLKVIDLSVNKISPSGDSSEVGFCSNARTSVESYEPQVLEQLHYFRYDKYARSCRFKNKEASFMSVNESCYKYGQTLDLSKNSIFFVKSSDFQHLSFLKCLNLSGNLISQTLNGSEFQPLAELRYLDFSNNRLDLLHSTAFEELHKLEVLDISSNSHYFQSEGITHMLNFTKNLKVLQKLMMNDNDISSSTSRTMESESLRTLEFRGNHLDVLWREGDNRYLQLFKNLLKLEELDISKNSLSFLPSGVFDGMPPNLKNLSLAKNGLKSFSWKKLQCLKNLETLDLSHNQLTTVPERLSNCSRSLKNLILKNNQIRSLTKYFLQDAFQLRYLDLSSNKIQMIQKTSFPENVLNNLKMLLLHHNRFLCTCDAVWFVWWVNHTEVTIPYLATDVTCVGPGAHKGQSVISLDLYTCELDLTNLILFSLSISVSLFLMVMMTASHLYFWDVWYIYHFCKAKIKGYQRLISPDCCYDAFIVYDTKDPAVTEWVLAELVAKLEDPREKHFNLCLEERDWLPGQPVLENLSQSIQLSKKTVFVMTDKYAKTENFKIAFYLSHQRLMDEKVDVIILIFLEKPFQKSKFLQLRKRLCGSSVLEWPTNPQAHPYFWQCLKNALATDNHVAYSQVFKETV
Sequence of hERG channel (Q12809 whole entry): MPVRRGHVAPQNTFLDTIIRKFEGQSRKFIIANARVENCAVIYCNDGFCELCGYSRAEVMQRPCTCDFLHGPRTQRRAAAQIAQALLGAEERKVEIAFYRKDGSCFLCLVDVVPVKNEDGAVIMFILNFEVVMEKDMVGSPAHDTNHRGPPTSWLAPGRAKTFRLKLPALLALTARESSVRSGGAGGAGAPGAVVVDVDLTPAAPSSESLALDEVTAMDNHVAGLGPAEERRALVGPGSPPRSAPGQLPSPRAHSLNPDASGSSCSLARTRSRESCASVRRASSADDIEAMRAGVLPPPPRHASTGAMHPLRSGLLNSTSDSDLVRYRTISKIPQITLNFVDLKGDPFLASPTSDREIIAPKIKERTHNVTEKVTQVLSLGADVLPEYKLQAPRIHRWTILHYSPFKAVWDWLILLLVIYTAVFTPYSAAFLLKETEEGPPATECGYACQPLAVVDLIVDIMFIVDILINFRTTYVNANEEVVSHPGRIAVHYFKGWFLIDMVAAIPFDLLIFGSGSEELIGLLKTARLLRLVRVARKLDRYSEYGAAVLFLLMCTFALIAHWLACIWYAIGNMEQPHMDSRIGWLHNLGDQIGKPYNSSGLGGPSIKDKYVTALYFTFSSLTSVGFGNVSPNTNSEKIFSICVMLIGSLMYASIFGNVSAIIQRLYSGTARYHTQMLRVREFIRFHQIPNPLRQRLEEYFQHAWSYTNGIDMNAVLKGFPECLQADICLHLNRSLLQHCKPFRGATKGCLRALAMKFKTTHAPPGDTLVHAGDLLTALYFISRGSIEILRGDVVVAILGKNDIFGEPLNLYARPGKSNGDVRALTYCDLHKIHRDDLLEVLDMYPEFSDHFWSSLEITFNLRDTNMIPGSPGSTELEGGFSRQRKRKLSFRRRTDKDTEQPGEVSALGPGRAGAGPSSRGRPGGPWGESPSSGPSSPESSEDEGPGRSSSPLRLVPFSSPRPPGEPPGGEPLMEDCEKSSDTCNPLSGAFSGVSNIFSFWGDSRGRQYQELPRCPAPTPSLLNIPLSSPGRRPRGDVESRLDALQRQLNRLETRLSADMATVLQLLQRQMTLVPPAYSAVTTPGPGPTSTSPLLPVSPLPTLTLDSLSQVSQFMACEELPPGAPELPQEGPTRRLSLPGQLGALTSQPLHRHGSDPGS

CCCS(=N)(=O)c1nc(N)c2[nH]c(=O)n(Cc3ccccc3)c2n1 (single isomer, unassigned) [Example 4-A, 6-Amino-9-benzyl-2-(propylsulfonimidoyl)-7H-purin-8-one]
EC50 (human TLR7): 0.067 µM | solubility thermodynamic (LYSA solubility): 0.056 mg/mL (≈ 162 µM) | Ames result [1]: negative | Safety ratio (hERG IC20/EC50) (hERG channel): >149 | IC20 (hERG channel; read-out: hERG IC20): > 10 µM

CCCS(=N)(=O)c1nc(N)c2[nH]c(=O)n(Cc3ccccc3)c2n1 (stereo not drawn) [Example 4, 6-Amino-9-benzyl-2-(propylsulfonimidoyl)-7H-purin-8-one]
EC50 (human TLR7): 0.065 µM | solubility thermodynamic (LYSA solubility): 0.021 mg/mL (≈ 60.6 µM) | Ames result [1]: negative | Safety ratio (hERG IC20/EC50) (hERG channel): >154 | IC20 (hERG channel; [2]): > 10 µM | pIC50 (hERG channel; read-out: hERG IC50): < 4.70

CCS(=N)(=O)c1nc(N)c2[nH]c(=O)n(Cc3ccc(Cl)cc3)c2n1 (single isomer, unassigned) [Example 70-A, 6-Amino-9-[(4-chlorophenyl)methyl]-2-(ethylsulfonimidoyl)-7H-purin-8-one]
Ames result [1]: negative

CCCS(=N)(=O)c1nc(N)c2[nH]c(=O)n(Cc3ccc(C(=O)O)cc3)c2n1 (stereo not drawn) [Example 39, 4-[[6-Amino-8-oxo-2-(propylsulfonimidoyl)-7H-purin-9-yl]methyl]benzoic acid]
EC50 (human TLR7): 0.17 µM | solubility thermodynamic (LYSA solubility): > 0.52 mg/mL | Ames result [1]: negative | Safety ratio (hERG IC20/EC50) (hERG channel): >59 | IC20 (hERG channel; [2]): > 10 µM | pIC50 (hERG channel; read-out: hERG IC50): < 4.70

CCCS(=N)(=O)c1nc(N)c2[nH]c(=O)n(Cc3ccccc3)c2n1 (single isomer, unassigned) [Example 4-B, 6-Amino-9-benzyl-2-(propylsulfonimidoyl)-7H-purin-8-one]
LYSA (LYSA solubility; 0.05 M phosphate buffer (pH 6.5)): 50 µg/mL | Ames result [1]: negative | Safety ratio (hERG IC20/EC50) (hERG channel): >116 | IC20 (hERG channel; read-out: hERG IC20): > 10 µM

CCS(=N)(=O)c1nc(N)c2[nH]c(=O)n(Cc3ccc(C)cc3)c2n1 (single isomer, unassigned) [Example 71-A, 6-Amino-2-(ethylsulfonimidoyl)-9-(p-tolylmethyl)-7H-purin-8-one]
solubility thermodynamic (LYSA solubility): 0.013 mg/mL (≈ 37.5 µM) | Ames result [1]: negative | Safety ratio (hERG IC20/EC50) (hERG channel): >75

CCCS(=N)(=O)c1nc(N)c2[nH]c(=O)n(Cc3ccc(Cl)cc3)c2n1 (stereo not drawn) [Example 9, 6-Amino-9-[(4-chlorophenyl)methyl]-2-(propylsulfonimidoyl)-7H-purin-8-one]
EC50 (human TLR7): 0.012 µM | Ames result [1]: negative | Safety ratio (hERG IC20/EC50) (hERG channel): >833 | IC20 (hERG channel; [2]): > 10 µM | pIC50 (hERG channel; read-out: hERG IC50): < 4.70

CCCS(=N)(=O)c1nc(N)c2[nH]c(=O)n(Cc3ccc(C)cc3)c2n1 (single isomer, unassigned) [Example 29-A, 6-Amino-2-(propylsulfonimidoyl)-9-(p-tolylmethyl)-7H-purin-8-one]
solubility thermodynamic (LYSA solubility): 0.006 mg/mL (≈ 16.6 µM) | Ames result [1]: negative | Safety ratio (hERG IC20/EC50) (hERG channel): >526

CCCS(=N)(=O)c1nc(N)c2[nH]c(=O)n(Cc3ccc(C)nc3)c2n1 (stereo not drawn) [Example 34, 6-Amino-9-[(6-methyl-3-pyridyl)methyl]-2-(propylsulfonimidoyl)-7H-purin-8-one]
EC50 (human TLR7): 0.03 µM | Ames result [1]: negative | pIC50 (hERG channel): < 4.70 | IC20 (hERG channel; human): > 10 µM

CCS(=N)(=O)c1nc(N)c2[nH]c(=O)n(Cc3ccc(Cl)cc3)c2n1 (single isomer, unassigned) [Example 70-B, 6-Amino-9-[(4-chlorophenyl)methyl]-2-(ethylsulfonimidoyl)-7H-purin-8-one]
solubility thermodynamic (LYSA solubility): 0.005 mg/mL (≈ 13.6 µM) | Ames result [1]: negative

CCCS(=N)(=O)c1nc(N)c2[nH]c(=O)n(Cc3ccc(F)c(F)c3)c2n1 (stereo not drawn) [Example 27, 6-Amino-9-(3,4-difluorophenylmethyl)-2-(propylsulfonimidoyl)-7H-purin-8-one]
EC50 (human TLR7): 0.036 µM | solubility thermodynamic (LYSA solubility): 0.007 mg/mL (≈ 18.3 µM) | Ames result [1]: negative | Safety ratio (hERG IC20/EC50) (hERG channel): >278 | IC20 (hERG channel; [2]): > 10 µM | pIC50 (hERG channel; read-out: hERG IC50): < 4.70
